According to PubChem BioAssay AID1963972 (Molecular Pharmacology Branch, DTP, NCI, 2024):

Test system: 945468-187-T-J2-PDC spheroids viability
Experiment: Anticancer human tumor 945468-187-T-J2-PDC patient-derived rectal carcinoma cell line growth inhibition [PI3K]
Details: spheroids with HUVEC and MSC; for IC50: curve of first compound; for viability, T/C: stronger effect = lower value
Summary of the method: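 Multi-cell spheroids combine tumor cells with HUVEC and human MSCs, treated with targeted agents alone or with inavolisib, alpelisib, duvelisib or copanlisib. Concentrations fall in half-log steps from at or near clinical Cmax, or from 10 microM where Cmax is unknown; viability read-out.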

[1] = second compound 0.00316 µM, first compound 0.0316 µM
[2] = second compound 0.00316 µM, first compound 0.1 µM
[3] = second compound 0.01 µM, first compound 0.0316 µM
[4] = second compound 0.01 µM, first compound 0.1 µM
[5] = second compound 0.0316 µM, first compound 0.0316 µM
[6] = second compound 0.0316 µM, first compound 0.1 µM
[7] = second compound 0.1 µM, first compound 0.0316 µM
[8] = second compound 0.1 µM, first compound 0.1 µM
[9] = second compound 0.316 µM, first compound 0.0316 µM
[10] = second compound 0.316 µM, first compound 0.1 µM
[11] = second compound 1 µM, first compound 0.0316 µM
[12] = second compound 1 µM, first compound 0.1 µM
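Further: spheroids exposed to compounds for seven days before reading.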

CC(C)NCC(C(=O)N1CCN(c2ncnc3c2C(C)CC3O)CC1)c1ccc(Cl)cc1 (centres undefined) + COc1c(OCCCN2CCOCC2)ccc2c3n(c(=NC(=O)c4cnc(N)nc4)nc12)CCN3
IC50 (second compound 0.00316 µM): > 10000 nM | IC50 (second compound 0.01 µM): > 10000 nM | IC50 (second compound 0.0316 µM): > 10000 nM | IC50 (second compound 0.1 µM): > 10000 nM | IC50 (second compound 0.316 µM): < 31.6 nM | IC50 (second compound 1 µM): < 31.6 nM | viability, T/C [1]: 88.9% | viability, T/C [2]: 110% | viability, T/C (second compound 0.00316 µM, first compound 0.316 µM): 129% | viability, T/C (second compound 0.00316 µM, first compound 1 µM): 106% | viability, T/C (second compound 0.00316 µM, first compound 3.16 µM): 110% | viability, T/C (second compound 0.00316 µM, first compound 10 µM): 90.3% | viability, T/C [3]: 104% | viability, T/C [4]: 109% | viability, T/C (second compound 0.01 µM, first compound 0.316 µM): 111% | viability, T/C (second compound 0.01 µM, first compound 1 µM): 87.7% | viability, T/C (second compound 0.01 µM, first compound 3.16 µM): 90.2% | viability, T/C (second compound 0.01 µM, first compound 10 µM): 86.6% | viability, T/C [5]: 83.6% | viability, T/C [6]: 125% | viability, T/C (second compound 0.0316 µM, first compound 0.316 µM): 112% | viability, T/C (second compound 0.0316 µM, first compound 1 µM): 103% | viability, T/C (second compound 0.0316 µM, first compound 3.16 µM): 84% | viability, T/C (second compound 0.0316 µM, first compound 10 µM): 101% | viability, T/C [7]: 87.2% | viability, T/C [8]: 106% | viability, T/C (second compound 0.1 µM, first compound 0.316 µM): 120% | viability, T/C (second compound 0.1 µM, first compound 1 µM): 80.5% | viability, T/C (second compound 0.1 µM, first compound 3.16 µM): 82.3% | viability, T/C (second compound 0.1 µM, first compound 10 µM): 86.1% | viability, T/C [9]: 47.1% | viability, T/C [10]: 51.6% | viability, T/C (second compound 0.316 µM, first compound 0.316 µM): 39.7% | viability, T/C (second compound 0.316 µM, first compound 1 µM): 44.6% | viability, T/C (second compound 0.316 µM, first compound 3.16 µM): 45.4% | viability, T/C (second compound 0.316 µM, first compound 10 µM): 36.8% | viability, T/C [11]: 21% | viability, T/C [12]: 21.3% | viability, T/C (second compound 1 µM, first compound 0.316 µM): 23.3% | viability, T/C (second compound 1 µM, first compound 1 µM): 20.9% | viability, T/C (second compound 1 µM, first compound 3.16 µM): 24.6% | viability, T/C (second compound 1 µM, first compound 10 µM): 21.6%

Cn1ncnc1[C@H]1c2n[nH]c(=O)c3cc(F)cc(c23)N[C@@H]1c1ccc(F)cc1 + COc1c(OCCCN2CCOCC2)ccc2c3n(c(=NC(=O)c4cnc(N)nc4)nc12)CCN3
IC50 (second compound 0.00316 µM): > 100 nM | IC50 (second compound 0.01 µM): > 100 nM | IC50 (second compound 0.0316 µM): > 100 nM | IC50 (second compound 0.1 µM): > 100 nM | IC50 (second compound 0.316 µM): < 0.316 nM | IC50 (second compound 1 µM): < 0.316 nM | viability, T/C (second compound 0.00316 µM, first compound 0.000316 µM): 107% | viability, T/C (second compound 0.00316 µM, first compound 0.001 µM): 114% | viability, T/C (second compound 0.00316 µM, first compound 0.00316 µM): 90.7% | viability, T/C (second compound 0.00316 µM, first compound 0.01 µM): 104% | viability, T/C [1]: 97.3% | viability, T/C [2]: 108% | viability, T/C (second compound 0.01 µM, first compound 0.000316 µM): 105% | viability, T/C (second compound 0.01 µM, first compound 0.001 µM): 128% | viability, T/C (second compound 0.01 µM, first compound 0.00316 µM): 101% | viability, T/C (second compound 0.01 µM, first compound 0.01 µM): 84% | viability, T/C [3]: 98.4% | viability, T/C [4]: 96.8% | viability, T/C (second compound 0.0316 µM, first compound 0.000316 µM): 98.7% | viability, T/C (second compound 0.0316 µM, first compound 0.001 µM): 107% | viability, T/C (second compound 0.0316 µM, first compound 0.00316 µM): 85.3% | viability, T/C (second compound 0.0316 µM, first compound 0.01 µM): 104% | viability, T/C [5]: 95.2% | viability, T/C [6]: 88.5% | viability, T/C (second compound 0.1 µM, first compound 0.000316 µM): 93.2% | viability, T/C (second compound 0.1 µM, first compound 0.001 µM): 75.7% | viability, T/C (second compound 0.1 µM, first compound 0.00316 µM): 83.6% | viability, T/C (second compound 0.1 µM, first compound 0.01 µM): 81.3% | viability, T/C [7]: 84.3% | viability, T/C [8]: 88.1% | viability, T/C (second compound 0.316 µM, first compound 0.000316 µM): 34% | viability, T/C (second compound 0.316 µM, first compound 0.001 µM): 35.2% | viability, T/C (second compound 0.316 µM, first compound 0.00316 µM): 43.5% | viability, T/C (second compound 0.316 µM, first compound 0.01 µM): 39.3% | viability, T/C [9]: 39.3% | viability, T/C [10]: 44% | viability, T/C (second compound 1 µM, first compound 0.000316 µM): 21% | viability, T/C (second compound 1 µM, first compound 0.001 µM): 19.7% | viability, T/C (second compound 1 µM, first compound 0.00316 µM): 23.7% | viability, T/C (second compound 1 µM, first compound 0.01 µM): 22.8% | viability, T/C [11]: 20.2% | viability, T/C [12]: 20.8%
